Results: patent US20050171057A1, “Pantoprazole cyclodextrin inclusion complexes” (ALTANA PHARMA AG, priority 2002, published 2005)
In brackets after ≈: the same amount, converted by molar mass. Read-outs that look alike come from different tables or passages of the source.

Experiments:
[1] = Complexation (phase solubility) study of pantoprazole with βCD and HPβCD in phosphate buffer pH 7; type: physicochemical; conditions: in the presence of βCD (up to 1.8% p/v), phosphate buffer pH 7, maximum
Procedure: Methods: Various solutions of the different cyclodextrins taken into consideration were prepared in phosphate buffer solution pH 7 at known concentrations and used to create saturated solutions of pantoprazole. After equilibration, these saturated solutions were filtered through MF™ membrane filters (pore size 0.45 μm), appropriately diluted with phosphate buffer solution and subjected to uv/vis spectrophotometric analysis. The cyclodextrin solutions prepared with phosphate buffer ranged from concentrations of 0% p/v up to 1.8% p/v for βCD, 20% p/v for HPβCD.

[2] = Phase-solubility studies of PNTH with β-CD, HPβ-CD and SBβ-CD in phosphate buffer pH 7; type: physicochemical; conditions: for solubility: thermodynamic from solid; for increase of apparent solubility versus phosphate buffer alone: phosphate buffer pH 7
Procedure: The Solubility of PNTH in Phosphate Buffer Solution at pH 7 was Determined Using a Previously Constructed Asorbance vs. Concentration Calibration Curve.
A known amount of PNTH was suspended in cyclodextrin solutions of different concentrations ranging from; 0 to 1.8% (p/v) for β-CD, 0 to 20% (p/v) for H-Pβ-CD and 0 to 15% (p/v) for SB-β-CD. The resulting suspension was filtered using a PTFE 0.45μ filter, adequately diluted and then subjected to UV spectrophotometric analysis. The concentration of PNTH in the corresponding sample was then calculated referring to the relevant PNTH calibration curve.
UV-VIS spectra were recorded on a Jasco V570 Spectrophoto meter.

increase of solubility with respect to solubility in phosphate buffer [1]: four | solubility ([2]; aqueous buffer, phosphate buffer solution pH 7, no cyclodextrin, read-out: solubility in phosphate buffer alone): 0.56 mM (≈ 215 µg/mL) | solubility ([2]; aqueous with cosolvent or surfactant or cyclodextrin, solutions of HPβ-CD (0 to 20% p/v) in phosphate buffer pH 7, maximum reached, read-out: apparent solubility with HPβ-CD): 17.8 mM (≈ 6820 µg/mL) | solubility ([2]; aqueous with cosolvent or surfactant or cyclodextrin, solutions of SBβ-CD (0 to 15% p/v) in phosphate buffer pH 7, maximum reached, read-out: apparent solubility with SBβ-CD): 9.3 mM (≈ 3570 µg/mL) | solubility ([2]; aqueous with cosolvent or surfactant or cyclodextrin, solutions of β-CD (0 to 1.8% p/v) in phosphate buffer pH 7, maximum reached, read-out: apparent solubility with β-CD): 2.25 mM (≈ 863 µg/mL) | increase of apparent solubility versus phosphate buffer alone ([2]; solutions of HPβ-CD (0 to 20% p/v)): 36 times | increase of apparent solubility versus phosphate buffer alone ([2]; solutions of SBβ-CD (0 to 15% p/v)): twenty | increase of apparent solubility versus phosphate buffer alone ([2]; solutions of β-CD (0 to 1.8% p/v)): four
Compound: COc1ccnc(C[S+]([O-])c2nc3ccc(OC(F)F)cc3[nH]2)c1OC (centres unmarked) [pantoprazole, 5-difluoromethoxy-2-[(3,4-dimethoxy-2-pyridinyl)methylsulfinyl]-1H-benzimidazole]
